{"source": "patent US9777037B2", "about": "“Neurosteroid compounds” (BIONATURE E. A. LTD., priority 2007, dated 2017)", "tested_on": "MCF-7 cells", "assay": "MCF-7 cell growth (MTT), estrogen agonism/antagonism", "assay_type": "cell-based, human", "excerpt": "Treatment of postmenopausal syndromes with 17β-estradiol (E2) is associated with a higher risk of developing breast and/or endometrial cancer (Arch Intern Med. 166, 1027 (2006)). E2 stimulation of the proliferation of cancer cells is driven by estrogen receptor alpha (ERα) (Mol. Endocrinol. 13, 969 (1999)). Since BNN-50, BNN-93 and BNN-124 may form two hydrogen bonds with an O—O distance of 10.9-12.5 Å and thus may fit the ERα binding cavity (Chem. Biol. 11, 397 (2004)), it was imperative to examine the estrogen agonism/antagonism properties of these neurosteroids using human adenocarcinoma cells from breast (MCF-7 cells) and uterus (Ishikawa cells) as reporters. […] Differences between control and neurosteroid-treated cells were assessed using one-way ANOVA. […]\nTo determine neurosteroid effects on the growth of MCF-7 human mammary (from ATCC) and Ishikawa endometrial adenocarcinoma cells (from ECACC), the cells were cultured at 37° C. in Dulbecco's Minimal Essential Medium (DMEM) supplemented with 10% Fetal Bovine Serum (FBS, from Biochrom) in 5% CO2 and subcultured using a trypsin 0.25%-EDTA 0.02% solution. Neurosteroid effects on the growth of the cells were assessed using MTT [3-(4,5-dimethylthiazol-2-yl)-2,5-diphenyltetrazolium bromide] and standard methodology (Chem. Biol. 11, 397 (2004)). […]", "data": [{"smiles": "C[C@]12CC[C@H](O)CC1=CCC1C2CC[C@@]2(C)C1CC[C@@]21CO1", "note": "(stereo partly drawn) [BNN-50, 17β-spiro-[5-androsten-17,2′-oxiran]-3β-ol]", "values": [{"measurement": "E2 agonism (at 1 uM), MCF-7 cell growth", "value": "non-significant"}, {"measurement": "E2 antagonism (at 1 uM), MCF-7 cell growth", "setting": "against E2 at 0.1 nM", "value": "non-significant"}]}]}
